Earlier results, collected in patent US9314524B2, “Topical formulations of Flucytosine” (priority 2007, dated 2016).

Columns and labels:
[1] = tested on: C. glabrata; conditions: 600-mg day for 2 to 3 weeks
[2] = tested on: 227 clinical yeast isolates; conditions: for cross-resistance in fluconazole/itraconazole resistant C. albicans isolates: polyene antibiotics
[3] = tested on: Candida tropicalis; conditions: 70 Candida tropicalis strains
[4] = tested on: C. tropicalis; conditions: 200-mg for 14 days, second line, 3 patients treated
[5] = human, in vivo
[6] = tested on: C. albicans; conditions: yeasts from 104 patients with vulvovaginal candidiasis
[7] = tested on: Candida albicans; conditions: 342 Candida albicans strains
[8] = tested on: Candida glabrata; conditions: 68 Candida glabrata strains
[9] = tested on: Candida parapsilosis; conditions: 65 Candida parapsilosis strains

SMILES: OB(O)O [boric acid]
- clinical and mycological success [1]: 64%
- clinical and mycological success, symptomatic women [1]: 47 of 73

SMILES: C[C@@H]1[C@H](O)[C@@H](C)/C=C/C=C/C=C/C=C/C=C/C=C/C=C/[C@H](O[C@@H]2O[C@H](C)[C@@H](O)[C@H](N)[C@@H]2O)C[C@@H]2O[C@](O)(C[C@@H](O)C[C@@H](O)[C@H](O)CC[C@@H](O)C[C@@H](O)CC(=O)O[C@H]1C)C[C@H](O)[C@H]2C(=O)O [amphotericin B]
- cross-resistance in fluconazole/itraconazole resistant C. albicans isolates [2]: no cross-resistance

SMILES: CC(=O)N1CCN(c2ccc(OCC3COC(Cn4ccnc4)(c4ccc(Cl)cc4Cl)O3)cc2)CC1 (stereo not drawn) [ketoconazole]
- isolates resistant [3]: 2.9%
- patients in whom the infection recurred [4]: three

SMILES: C[C@@H]1[C@H](O)[C@@H](C)/C=C/C=C/CC/C=C/C=C/C=C/C=C/C(O[C@H]2O[C@H](C)[C@@H](O)[C@H](N)[C@@H]2O)CC2O[C@](O)(CC(O)C(O)CCC(O)CC(O)CC(O)CC(=O)O[C@H]1C)CC(O)C2C(=O)O (stereo partly drawn) [nystatin]
- cross-resistance in fluconazole/itraconazole resistant C. albicans isolates [2]: no cross-resistance

SMILES: Nc1nc(=O)[nH]cc1F [flucytosine, 4-amino-5-fluoropyrimidin-2(1H)-one]
- plasma level that led to bone marrow depression and hepatotoxicity [5]: greater than 100 mg/L

SMILES: OC(Cn1cncn1)(Cn1cncn1)c1ccc(F)cc1F [fluconazole]
- resistant C. albicans isolated, share of cases [6]: 13.46%
- yeast strains resistant ([2]; 227 vaginal clinical yeast isolates): thirteen
- isolates showing resistance [7]: 7.6%
- isolates demonstrating resistance [8]: 10.3%
- isolates demonstrating resistance [9]: 4.6%
